From the supplement of paper PMC10307832

Assays:
Assay in all cases: relative viability (nuclei count vs DMSO), 5 days (fraction); higher = more cells survive
GSK-J4 = compound: CCOC(=O)CCNc1cc(N2CCc3ccccc3CC2)nc(-c2ccccn2)n1 [GSK-J4]
In short: (§1)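 Lung cancer cell lines in 1536-well plates were kept overnight at 37 °C, then pinned with five library-drug doses (not always all listed) spaced by √10 on vehicle-anchored plates. After 5 days without medium change, cells were fixed, permeabilised and Hoechst-stained in one step, imaged at 4×, and nuclei were counted with MetaXpress. Viability is treated-well nuclei divided by vehicle-well nuclei, taken as the median over plates. Plates passed only with control CV below 25% and at least one doubling.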

AZ3146 = compound: CN1CCC(CC1)OC2=CC(=C(C=C2)NC3=NC=C4C(=N3)N(C(=O)N4C)C5CCCC5)OC [AZ3146]
In short: as §1

GSK-J4 + Navitoclax = compound: CCOC(=O)CCNc1cc(N2CCc3ccccc3CC2)nc(-c2ccccn2)n1 [GSK-J4] + CC1(C)CCC(c2ccc(Cl)cc2)=C(CN2CCN(c3ccc(C(=O)NS(=O)(=O)c4ccc(N[C@H](CCN5CCOCC5)CSc5ccccc5)c(S(=O)(=O)C(F)(F)F)c4)cc3)CC2)C1 [Navitoclax] (partner 0.5 µM)
In short: (§2)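 Relative viability divides the nuclei count in treated wells by that in vehicle wells. Lung cancer cell lines were seeded in 1536-well plates, dosed by pin tool the next day, and fixed and stained after 5 days in one step with final 0.05% Triton X-100, 1% formaldehyde and 1 ug/ml Hoechst. Dosing was a single drug or a fixed anchor-drug dose plus five library-drug doses (not always all listed) in √10 steps, and values are medians of duplicate plates imaged at 4×.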

AZ3146 + Phenformin = compound: CN1CCC(CC1)OC2=CC(=C(C=C2)NC3=NC=C4C(=N3)N(C(=O)N4C)C5CCCC5)OC [AZ3146] + N=C(N)NC(=N)NCCc1ccccc1 [Phenformin] (partner 250 µM)
In short: as §2

Cell Line | relative viability (GSK-J4; 0.5 µM) | relative viability (GSK-J4; 1.581 µM) | relative viability (GSK-J4; 5 µM) | relative viability (GSK-J4; 15.81 µM) | relative viability (GSK-J4; 50 µM) | relative viability (AZ3146; 0.08 µM) | relative viability (AZ3146; 0.253 µM) | relative viability (AZ3146; 0.8 µM) | relative viability (AZ3146; 2.53 µM) | relative viability (AZ3146; 8 µM) | relative viability (GSK-J4 + Navitoclax; first compound 0.5 µM) | relative viability (GSK-J4 + Navitoclax; first compound 1.581 µM) | relative viability (GSK-J4 + Navitoclax; first compound 5 µM) | relative viability (GSK-J4 + Navitoclax; first compound 15.81 µM) | relative viability (GSK-J4 + Navitoclax; first compound 50 µM) | relative viability (AZ3146 + Phenformin; first compound 0.08 µM) | relative viability (AZ3146 + Phenformin; first compound 0.253 µM) | relative viability (AZ3146 + Phenformin; first compound 0.8 µM) | relative viability (AZ3146 + Phenformin; first compound 2.53 µM) | relative viability (AZ3146 + Phenformin; first compound 8 µM)
COR-L 105 | 0.925 | 0.864 | 0.795 | 0.949 | 0.861 | 0.82 | 0.874 | 0.939 | 0.825 | 0.504 | 0.692 | 0.551 | 0.647 | 0.88 | 0.679 | 0.548 | 0.451 | 0.505 | 0.388 | 0.294
NCI-H1666 | 0.977 | 0.79 | 1.19 | 1 | 0.804 | 1.09 | 0.953 | 1.02 | 1.05 | 1.05 | 1.08 |  | 1.19 | 0.918 | 0.472 | 0.592 | 0.574 | 0.53 | 0.608 | 0.528
CAL-12T | 0.94 | 0.838 | 1.05 | 0.93 | 0.834 | 1.03 | 0.978 | 1.07 | 1.09 | 0.776 | 1.2 | 1.17 | 1.47 | 1.16 | 1.21 | 0.674 | 0.575 | 0.568 | 0.6 | 0.405
EPLC-272H | 0.994 | 0.678 | 0.93 | 0.814 | 0.734 | 0.789 | 0.895 | 0.92 | 0.992 | 0.969 | 1.14 |  | 1.21 | 0.979 | 1.02 |  | 0.247 | 0.288 | 0.345 | 0.317
NCI-H1437 | 1.01 | 0.909 | 0.923 | 1.01 | 0.609 | 0.887 | 0.936 | 0.953 | 1.03 | 0.983 | 1.03 | 1.03 | 1.03 | 1.08 | 0.319 | 0.264 | 0.34 | 0.312 | 0.295 | 0.313
EKVX | 0.998 | 0.71 | 1.03 | 0.85 | 0.898 | 0.954 | 0.999 | 0.93 | 1 | 1.04 | 0.871 | 0.874 | 1.12 | 0.834 | 0.951 | 0.248 | 0.196 | 0.234 | 0.25 | 0.231
NCI-H3122 | 0.941 | 0.904 | 0.955 | 1.05 | 1.02 | 0.979 | 1 | 1.02 | 0.984 | 0.991 | 1.02 | 1 | 1.02 | 1.04 | 0.973 | 0.367 | 0.391 | 0.327 | 0.339 | 0.305
NCI-H2023 | 0.942 | 0.853 | 1.07 | 0.906 | 0.856 | 0.935 | 0.912 | 0.969 | 0.871 | 0.296 | 0.921 | 0.976 | 1.08 | 0.991 | 0.915 | 0.403 | 0.428 | 0.349 | 0.38 | 0.217
NCI-H460 | 0.957 | 0.8 | 0.767 | 0.981 | 1.01 | 0.94 | 1.01 | 1.02 | 0.997 | 0.78 | 1.02 | 0.984 | 1.09 | 1.22 | 0.994 | 0.49 | 0.493 | 0.466 | 0.515 | 0.0767
PC-3 [JPC-3] | 1.01 | 1.03 | 0.953 | 0.95 | 0.955 | 0.907 | 0.97 | 1.01 | 1.05 | 0.979 | 0.77 | 0.742 | 0.787 | 0.743 | 0.753 | 0.465 | 0.476 | 0.517 | 0.521 | 0.461
HCC-15 | 0.929 | 0.716 | 0.927 | 0.895 | 0.767 | 0.98 | 1.05 | 0.993 | 1.03 | 0.99 | 0.692 | 0.701 | 0.779 | 0.566 | 0.444 | 0.51 | 0.463 | 0.429 | 0.427 | 0.391
NCI-H2228 | 0.904 | 1.04 | 1.15 | 0.997 | 0.948 | 1.04 | 0.973 | 1.1 | 0.995 | 0.933 | 1.1 | 0.868 | 1.07 | 0.8 | 0.871 | 0.345 | 0.389 | 0.351 | 0.321 | 0.277
NCI-H1650 | 1.11 | 0.791 | 0.889 | 0.808 | 0.682 | 0.966 | 0.873 | 0.812 | 0.864 | 0.652 | 1.07 | 0.916 | 1.33 | 0.995 | 0.565 | 0.415 | 0.355 | 0.449 | 0.386 | 0.26
NCI-H1975 | 0.972 | 0.857 |  | 0.953 | 1.09 | 0.859 | 0.993 | 1.06 | 1.02 | 0.844 | 1.05 | 1.11 |  | 1.04 | 1.15 | 0.406 | 0.387 | 0.386 | 0.401 | 0.301
NCI-H727 | 0.863 | 0.754 | 1.11 | 0.85 | 0.468 | 0.838 | 1.08 | 0.838 | 1.21 | 0.74 | 0.394 |  | 0.648 | 0.404 | 0.208 | 0.456 | 0.545 | 0.341 | 0.61 | 0.417
COR-L23 | 0.965 | 0.894 |  | 1 | 0.852 | 0.928 | 1.03 | 1.03 | 0.974 | 0.977 | 0.886 | 1.02 |  | 0.929 | 0.956 | 0.401 | 0.44 | 0.416 | 0.526 | 0.336
